Measurements from patent US20220296714A1, “TARGETED NANO-PHOTOMEDICINES FOR PHOTODYNAMIC THERAPY OF CANCER” (ERASMUS UNIVERSITY MEDICAL CENTER ROTTERDAM, priority 2009, published 2022).

Assays:
[1] = Photobleaching under laser irradiation, measured with a fluorescence spectrometer; assay type: physicochemical; settings: total dose 10 J cm^−2, nearly same initial fluorescence intensity
Description: Photobleaching characteristics of free Ce6 and nanophotomedicine (NPM-3) having nearly the same initial florescence intensity (that correlate with concentration of the drug) is compared using a fluorescence spectrometer. Laser irradiation of samples of both products was carried out under identical condition of a total dose of 10 J cm^−2. FIG. 4 illustrates the changes in the fluorescence emission characteristics of both the samples. […] In effect, this leads to long term stability of the drug within the construct even after extended duration of therapy.

Leukemia cells K562 = experiment: Intracellular photobleaching by confocal imaging under 405 nm laser; assay type: cell-based, human; settings: 1 μM sensitizer, 3 hrs incubation, 1-360 seconds
Description: Leukemia cells K562 were seeded at 800.000 cells/well in a 12 well tissue culture plate and treated with both free Ce6 (1 μM) and nanophotomedicine (NPM-3) prepared by using the same concentration of the sensitizer. Cells were incubated at 37° C. for 3 hrs before imaging using confocal microscope. Fluorescence imaging was carried out by exciting the sensitizer or nanophotomedicine taken-up by the cells using 405 nm laser. For recording the photobleaching at intracellular regions of the cancer cells, which has significant correlation to therapeutic effects, imaging is carried out after stipulated duration of laser irradiation from 1-360 seconds).

photodose at which the drug is inactivated by photobleaching [1]: 2.5 J cm^−2
Substance: chlorin e6 [free Ce6]
duration of laser irradiation until intracellular fluorescence is bleached out (Leukemia cells K562): 30 s
